The results in this text go back to patent US9956225B2, “Treatment of myelodysplastic syndrome” (Boehringer Ingelheim International GmbH, priority 2013, dated 2018).

For data set [1], the system named is human AML cell line MV4;11. Description: Nude mouse xenograft model derived from human AML cell line MV4;11: tumor growth. The data set is classed as in vivo. The settings on record: 21 days, MV4;11 xenograft in nude mice. The procedure: Tumor-bearing mice were treated for 3 weeks intravenously either with vehicle or once weekly with 10 mg/kg or 20 mg/kg Volasertib (BI 6727), respectively. Median tumor volumes are plotted over time. Day 1 was the first day, day 21 the last day of the experiment. Efficacy results from this xenograft model are considered valid for MDS.
MV4;11 (CRL-9591) cells were obtained from ATCC. According to the Catalogue of Somatic Mutations in Cancer of the Wellcome Trust Sanger Institute, UK, this cell line carries a mutation in the FLT3 gene. Cells were cultured in T175 tissue culture flasks at 37° C. and 5% CO2. The medium used was IMDM supplemented with 10% fetal calf serum, 1% NEAA, 1% sodium pyruvate and 1% glutamine.
Mice were 8-9 week-old athymic female BomTac: NMRI-Foxn1^nu purchased from Taconic, Denmark. After arrival in the animal facility, mice were allowed to adjust to ambient conditions for at least 3 days before they were used for experiments. They were housed in Macrolon® type II cages in groups of 5 under standardized conditions at 21.5±1.5° C. temperature and 55±10% humidity. […]
(§1) The tumor diameter was measured three times a week with a caliper. The volume of each tumor [in mm^3] was calculated according to the formula “tumor volume=length*diameter^2*π/6”. To monitor side effects of treatment, mice were inspected daily for abnormalities and body weight was determined three times a week. […]

The nature of data set [2]: Body weight change in MV4;11 nude mouse xenograft model (side effects). The data set is classed as in vivo. The conditions noted are these: 21 days, tumor-bearing nude mice. The procedure:
Tumor-bearing mice were treated for 3 weeks intravenously either with vehicle or with 10 mg/kg or 20 mg/kg Volasertib, respectively, once weekly. Median changes in body weight compared to day 1 are plotted over time. Day 1 was the first day, day 21 the last day of the experiment.
Mice were 8-9 week-old athymic female BomTac: NMRI-Foxn1^nu purchased from Taconic, Denmark. After arrival in the animal facility, mice were allowed to adjust to ambient conditions for at least 3 days before they were used for experiments. They were housed in Macrolon® type II cages in groups of 5 under standardized conditions at 21.5±1.5° C. temperature and 55±10% humidity. Standardized diet (PROVIMI KLIBA) and autoclaved tap water were provided ad libitum.
Volasertib (BI 6727) was dissolved in hydrochloric acid (0.1 N), diluted with 0.9% NaCl and injected intravenously into the tail vein. An administration volume of 10 ml per kg body weight was used. The solution was freshly made up each injection day.
as §1

The structures appear in SMILES notation.

As to `CC[C@@H]1C(=O)N(C)c2cnc(Nc3ccc(C(=O)N[C@H]4CC[C@H](N5CCN(CC6CC6)CC5)CC4)cc3OC)nc2N1C(C)C` [Volasertib, N-[trans-4-[4-(cyclopropylmethyl)-1-piperazinyl]cyclohexyl]-4-[[(7R)-7-ethyl-5,6,7,8-tetrahydro-5-methyl-8-(1-methylethyl)-6-oxo-2-pteridinyl]amino]-3-methoxy-benzamide], the “median T/C (ratio of median tumor volume of treated vs. control tumors)” value in data set [1] (10 mg/kg once a week i.v.) was determined as 76%; in data set [1] (20 mg/kg once a week i.v.) it was 38%. For the same compound, the “body weight gain (side effect profile)” value in data set [2] (10 mg/kg once a week i.v.) and in data set [2] (20 mg/kg once a week i.v.) was “body weight gain was comparable to vehicle” each time.
